Assay results: ChEMBL document CHEMBL1201862, “PubChem BioAssay data set” (2004)
The source made the active and inactive calls.

How the values were obtained:
[1] = biological target: FAD-linked sulfhydryl oxidase ALR (Homo sapiens, UniProt P55789); assay: inhibitors of human ALR sulfhydryl oxidase, dose response, biochemical, H2O2 detection, luminescence, cherry-pick (AID 493248)
Cytochrome P450 2D6 = Cytochrome P450 2D6 (Homo sapiens, UniProt P10635);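 note: CYP2D6 member of a cytochrome P450 panel assay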
[2] = growth suppression of PTEN-null colon cells, dose response, cell-based, HCT116 PTEN knockout (AID 1047); assay type: functional;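 note: HCT116 colon tumor cells with PTEN knocked out; cells exposed to compound for 60 hours before readout; potency for loss of cell viability measured by luminescence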
[3] = growth suppression of beta-catenin-knockout colon cells, dose response, cell-based, HCT116, human colon tumor (AID 1045); assay type: functional;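 note: HCT116 colon tumor cells with beta catenin knocked out; cells exposed to compound for 60 hours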
[4] = biological target: Glucose-6-phosphate 1-dehydrogenase (Homo sapiens, UniProt P11413); assay: human G6PD enzyme inhibitors, dose response, selectivity assay for P. falciparum G6PD inhibitor project, biochemical, fluorescence (AID 504792); assay type: functional
H9c2 = assay: cells; assay type: functional, cell-based; settings: Rattus norvegicus, H9c2, Myocardium
Large T antigen = Large T antigen (Simian virus 40, UniProt P03070); assay type: functional, Betapolyomavirus macacae;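 note: Confirmatory-stage PubChem screen for compounds that inhibit SV40 T antigen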
Leucine aminopeptidase = biological target: T1, Leucine aminopeptidase (Plasmodium falciparum 3D7, UniProt Q8IL11); assay: P. falciparum M17LAP inhibitors, primary screen, biochemical, fluorogenic H-Leu-NHMec substrate, 1536-well (AID 1619); assay type: functional
T1 sequence (Q8IL11 whole entry): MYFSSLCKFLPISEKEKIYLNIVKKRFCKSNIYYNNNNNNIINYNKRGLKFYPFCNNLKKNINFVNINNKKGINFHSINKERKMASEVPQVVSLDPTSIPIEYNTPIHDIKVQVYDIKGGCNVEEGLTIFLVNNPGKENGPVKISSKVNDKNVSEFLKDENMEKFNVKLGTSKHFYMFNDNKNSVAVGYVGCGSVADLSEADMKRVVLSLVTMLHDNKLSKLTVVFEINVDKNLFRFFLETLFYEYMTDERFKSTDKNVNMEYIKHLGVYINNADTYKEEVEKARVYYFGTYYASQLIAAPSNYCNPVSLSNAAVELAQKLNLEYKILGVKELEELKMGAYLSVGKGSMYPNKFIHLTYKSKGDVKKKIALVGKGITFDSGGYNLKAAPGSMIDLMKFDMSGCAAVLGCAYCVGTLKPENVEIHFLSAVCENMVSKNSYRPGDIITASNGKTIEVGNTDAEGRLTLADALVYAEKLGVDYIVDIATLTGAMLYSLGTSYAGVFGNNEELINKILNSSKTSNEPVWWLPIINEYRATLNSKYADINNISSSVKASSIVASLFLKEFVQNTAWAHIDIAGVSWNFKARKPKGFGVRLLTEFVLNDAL

Aminopeptidase N = biological target: T2, Aminopeptidase N (Plasmodium falciparum FcB1/Columbia, UniProt O96935); assay: P. falciparum M1AAP inhibitors, biochemical, fluorogenic H-Leu-NHMec substrate, 1536-well (AID 1445); parameters: species or system Plasmodium falciparum 3D7, 3D7
T2 sequence (O96935 whole entry): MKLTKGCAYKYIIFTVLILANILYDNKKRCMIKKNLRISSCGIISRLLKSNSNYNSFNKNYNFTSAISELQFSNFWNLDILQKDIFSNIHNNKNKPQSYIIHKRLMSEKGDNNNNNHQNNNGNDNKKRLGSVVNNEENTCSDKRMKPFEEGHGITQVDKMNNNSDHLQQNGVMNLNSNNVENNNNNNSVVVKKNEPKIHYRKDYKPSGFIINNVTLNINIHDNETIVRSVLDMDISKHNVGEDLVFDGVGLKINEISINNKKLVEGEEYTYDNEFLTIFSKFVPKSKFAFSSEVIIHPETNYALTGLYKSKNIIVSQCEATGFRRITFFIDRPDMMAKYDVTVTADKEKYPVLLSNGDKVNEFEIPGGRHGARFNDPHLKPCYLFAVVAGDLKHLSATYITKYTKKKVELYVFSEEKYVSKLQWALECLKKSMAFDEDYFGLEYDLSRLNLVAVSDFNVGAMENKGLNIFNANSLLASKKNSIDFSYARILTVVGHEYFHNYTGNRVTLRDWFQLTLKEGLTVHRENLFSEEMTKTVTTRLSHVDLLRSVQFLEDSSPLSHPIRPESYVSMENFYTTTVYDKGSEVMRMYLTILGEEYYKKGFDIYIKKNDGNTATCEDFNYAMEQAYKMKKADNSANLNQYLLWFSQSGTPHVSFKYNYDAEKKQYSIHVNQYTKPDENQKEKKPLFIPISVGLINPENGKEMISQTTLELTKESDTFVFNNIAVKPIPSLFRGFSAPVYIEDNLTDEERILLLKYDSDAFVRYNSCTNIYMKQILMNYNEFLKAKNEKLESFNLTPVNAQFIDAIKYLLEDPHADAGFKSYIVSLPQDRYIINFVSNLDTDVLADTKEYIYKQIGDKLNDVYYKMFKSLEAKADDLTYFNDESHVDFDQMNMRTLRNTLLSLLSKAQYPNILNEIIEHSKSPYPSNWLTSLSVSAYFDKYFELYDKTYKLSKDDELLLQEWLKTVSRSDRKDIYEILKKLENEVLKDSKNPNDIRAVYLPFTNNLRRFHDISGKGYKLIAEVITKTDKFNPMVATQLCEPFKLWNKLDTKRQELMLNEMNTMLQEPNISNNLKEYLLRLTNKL

[5] = biological target: T3, Heat shock factor protein 1 (Mus musculus, UniProt P38532); assay: inhibition of MG132-induced HSE-luciferase signal, confirmation, cell-based, NIH3T3, luminescence, dose retest (AID 2382); assay type: functional;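 note: NIH3T3 fibroblasts with HSF1-driven luciferase reporter stressed by proteasome inhibitor MG132; luminescence from HSF1-driven luciferase expression after 8 hours of MG132 stress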
T3 sequence (P38532 whole entry): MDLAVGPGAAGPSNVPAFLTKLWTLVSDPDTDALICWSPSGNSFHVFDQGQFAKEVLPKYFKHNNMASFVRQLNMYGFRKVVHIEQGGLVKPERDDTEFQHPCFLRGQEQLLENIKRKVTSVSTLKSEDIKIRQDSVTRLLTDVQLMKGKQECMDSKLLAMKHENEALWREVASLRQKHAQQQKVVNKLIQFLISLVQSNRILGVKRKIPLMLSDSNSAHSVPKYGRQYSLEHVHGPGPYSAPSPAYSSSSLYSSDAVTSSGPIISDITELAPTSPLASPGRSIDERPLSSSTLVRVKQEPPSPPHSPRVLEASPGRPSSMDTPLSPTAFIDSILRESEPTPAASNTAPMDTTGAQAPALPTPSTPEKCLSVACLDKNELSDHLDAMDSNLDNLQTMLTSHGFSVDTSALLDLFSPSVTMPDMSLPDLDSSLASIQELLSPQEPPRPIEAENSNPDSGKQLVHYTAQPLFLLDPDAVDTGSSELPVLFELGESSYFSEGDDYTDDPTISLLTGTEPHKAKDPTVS

[6] = biological target: T4, Polyadenylate-binding protein 1 (Homo sapiens, UniProt P11940); assay: PABP1 MLLE–PAM2 binding inhibitor potency, dose response, biochemical, fluorescence polarization, FITC-PAM2 peptide (AID 602259); assay type: functional; settings: read-out: IC50_Mean
[7] = biological target: T4, Polyadenylate-binding protein 1; assay: PABP1 MLLE–PAM2 interaction inhibitors, dose response, miRNA deadenylation inhibitor project, biochemical, fluorescence polarization, Cy5-PAM2 peptide, secondary (AID 602260); assay type: functional; settings: read-out: IC50_Mean
Streptococcus = assay: Group A Streptococcus viability loss, dose response, counter-screen for streptokinase expression inhibitor project, luminescence, BacTiterGlo (AID 1915); assay type: functional, organism-based;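 note: potency for reduction of bacterial viability or growth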
[8] = system: Streptococcus sp. 'group A'; assay: growth inhibition of control SK(-) GAS strain, dose response, counter-screen for streptokinase expression inhibitor project, luminescence, kanamycin, BacTiterGlo, confirmation (AID 1900); assay type: functional, organism-based
[9] = biological target: T3, Heat shock factor protein 1; assay: HSF1 potentiators in luciferase reporter cells, confirmation, cell-based, NIH3T3, luminescence, dose retest (AID 435004); assay type: functional;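 note: stress induced by proteasome inhibitor MG132 added 30 min after compound; luciferase reporter driven by HSF1 response element in NIH3T3 cells; actives raise luminescence as potentiators of the MG132 stress response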
Cytochrome P450 2C19 = Cytochrome P450 2C19 (Homo sapiens, UniProt P33261); assay: Cytochrome panel assay with activity outcomes. Panel member name: p450-cyp2c19 Compounds with AC50 equal or less than 10 uM are considered active; assay type: functional; settings: read-out: AC50
Chain of Cytochrome P450 2C19 (P33261 whole entry): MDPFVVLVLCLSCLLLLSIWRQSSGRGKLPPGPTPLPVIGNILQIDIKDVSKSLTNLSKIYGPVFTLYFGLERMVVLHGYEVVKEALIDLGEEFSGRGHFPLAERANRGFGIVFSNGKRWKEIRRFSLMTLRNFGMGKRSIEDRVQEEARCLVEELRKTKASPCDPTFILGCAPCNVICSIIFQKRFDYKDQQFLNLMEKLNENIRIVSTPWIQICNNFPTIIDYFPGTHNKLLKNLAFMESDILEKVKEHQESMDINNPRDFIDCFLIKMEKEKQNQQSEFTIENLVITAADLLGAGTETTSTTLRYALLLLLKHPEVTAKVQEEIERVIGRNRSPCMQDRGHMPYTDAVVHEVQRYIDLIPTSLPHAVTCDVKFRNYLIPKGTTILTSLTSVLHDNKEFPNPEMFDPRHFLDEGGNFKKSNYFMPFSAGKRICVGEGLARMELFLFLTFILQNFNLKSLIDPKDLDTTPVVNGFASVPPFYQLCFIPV

Chain of FAD-linked sulfhydryl oxidase ALR (P55789 whole entry): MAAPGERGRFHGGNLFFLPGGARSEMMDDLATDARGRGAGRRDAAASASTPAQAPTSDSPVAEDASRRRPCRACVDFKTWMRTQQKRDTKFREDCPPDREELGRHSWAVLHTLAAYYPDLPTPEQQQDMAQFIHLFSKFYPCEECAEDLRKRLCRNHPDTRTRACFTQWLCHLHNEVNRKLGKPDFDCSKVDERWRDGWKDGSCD
Chain of Glucose-6-phosphate 1-dehydrogenase (P11413 whole entry): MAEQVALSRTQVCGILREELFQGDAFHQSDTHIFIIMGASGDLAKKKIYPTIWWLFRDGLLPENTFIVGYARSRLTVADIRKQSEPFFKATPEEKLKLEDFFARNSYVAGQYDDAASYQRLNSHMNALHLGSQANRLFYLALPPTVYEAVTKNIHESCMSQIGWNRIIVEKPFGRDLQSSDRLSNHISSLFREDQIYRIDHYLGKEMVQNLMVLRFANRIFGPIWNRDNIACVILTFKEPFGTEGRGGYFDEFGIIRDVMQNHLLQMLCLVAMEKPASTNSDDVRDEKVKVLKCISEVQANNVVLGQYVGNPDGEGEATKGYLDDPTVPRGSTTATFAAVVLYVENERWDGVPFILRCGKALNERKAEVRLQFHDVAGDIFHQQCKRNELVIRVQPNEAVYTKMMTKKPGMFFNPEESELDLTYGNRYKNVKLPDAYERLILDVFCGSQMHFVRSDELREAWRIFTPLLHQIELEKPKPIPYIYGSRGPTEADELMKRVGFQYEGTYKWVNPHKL
T4 sequence (P11940 whole entry): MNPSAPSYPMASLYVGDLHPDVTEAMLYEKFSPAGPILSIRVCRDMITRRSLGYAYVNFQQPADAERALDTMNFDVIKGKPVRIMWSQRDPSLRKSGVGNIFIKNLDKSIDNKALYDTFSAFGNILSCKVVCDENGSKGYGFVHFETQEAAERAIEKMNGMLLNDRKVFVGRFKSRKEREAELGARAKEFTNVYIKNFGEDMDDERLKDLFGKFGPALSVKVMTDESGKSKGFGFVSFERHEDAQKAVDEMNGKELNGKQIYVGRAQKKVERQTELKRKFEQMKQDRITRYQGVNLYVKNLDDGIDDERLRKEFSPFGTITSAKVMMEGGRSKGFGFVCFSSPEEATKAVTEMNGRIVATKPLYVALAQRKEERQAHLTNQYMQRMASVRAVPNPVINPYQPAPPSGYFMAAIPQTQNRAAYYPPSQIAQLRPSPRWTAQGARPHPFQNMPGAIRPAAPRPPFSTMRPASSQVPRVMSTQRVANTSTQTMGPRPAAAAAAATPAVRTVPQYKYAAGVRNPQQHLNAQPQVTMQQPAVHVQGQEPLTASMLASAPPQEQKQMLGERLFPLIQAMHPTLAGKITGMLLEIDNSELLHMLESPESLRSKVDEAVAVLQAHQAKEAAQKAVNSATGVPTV
Chain of Cytochrome P450 2D6 (P10635 whole entry): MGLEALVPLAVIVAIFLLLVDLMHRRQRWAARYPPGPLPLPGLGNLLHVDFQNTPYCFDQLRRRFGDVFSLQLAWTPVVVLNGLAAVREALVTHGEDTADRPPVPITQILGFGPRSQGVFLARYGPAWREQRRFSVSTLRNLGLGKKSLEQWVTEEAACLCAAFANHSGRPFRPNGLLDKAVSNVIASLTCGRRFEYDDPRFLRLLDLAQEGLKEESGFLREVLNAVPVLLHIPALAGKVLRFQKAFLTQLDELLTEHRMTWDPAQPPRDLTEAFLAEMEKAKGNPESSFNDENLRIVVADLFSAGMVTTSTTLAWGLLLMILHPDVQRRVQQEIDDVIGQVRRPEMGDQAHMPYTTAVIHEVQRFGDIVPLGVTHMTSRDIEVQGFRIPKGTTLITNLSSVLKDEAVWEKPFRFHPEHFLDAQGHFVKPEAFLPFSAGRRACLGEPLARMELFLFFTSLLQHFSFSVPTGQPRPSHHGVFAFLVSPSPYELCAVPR
Chain of Large T antigen (P03070 whole entry): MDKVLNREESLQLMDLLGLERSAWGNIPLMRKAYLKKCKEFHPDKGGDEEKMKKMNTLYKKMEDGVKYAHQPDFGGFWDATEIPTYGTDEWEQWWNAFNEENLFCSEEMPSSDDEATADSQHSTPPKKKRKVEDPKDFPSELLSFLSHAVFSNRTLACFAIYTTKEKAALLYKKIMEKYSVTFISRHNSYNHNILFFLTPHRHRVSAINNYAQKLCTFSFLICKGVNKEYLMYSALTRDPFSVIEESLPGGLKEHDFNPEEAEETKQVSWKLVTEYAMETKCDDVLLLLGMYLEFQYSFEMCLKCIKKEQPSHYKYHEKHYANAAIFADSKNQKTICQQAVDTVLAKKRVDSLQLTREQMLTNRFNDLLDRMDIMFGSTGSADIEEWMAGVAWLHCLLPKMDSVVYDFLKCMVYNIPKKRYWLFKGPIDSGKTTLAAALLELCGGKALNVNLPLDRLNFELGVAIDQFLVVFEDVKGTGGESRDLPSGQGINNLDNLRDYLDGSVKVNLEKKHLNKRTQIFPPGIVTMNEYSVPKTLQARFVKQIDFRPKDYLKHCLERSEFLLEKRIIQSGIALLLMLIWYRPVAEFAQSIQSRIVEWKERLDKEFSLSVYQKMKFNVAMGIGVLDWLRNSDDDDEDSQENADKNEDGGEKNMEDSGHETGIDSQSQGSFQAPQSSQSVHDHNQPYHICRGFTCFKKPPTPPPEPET

## CC(C)n1cnc2cc(NCc3ccccc3O)ccc21
[1]
  AC50: 1.44 µM (active)

## COc1ccc(/C=N/NC(=O)CCCOc2ccc(Cl)cc2Cl)cc1[N+](=O)[O-]
Cytochrome P450 2D6
  AC50: 10 µM (inconclusive)
[2]
  EC50: 281 µM (active)
[3]
  EC50: 59.7 µM (active)

## COc1ccc(C(=O)Nc2sc3c(c2C(=O)O)CC(C)(C)OC3)cc1
[4]
  IC50: > 80 µM (inactive)

## CC(OC(=O)CCc1nc(O)c2ccccc2n1)C(=O)NCc1ccc2c(c1)OCO2 (stereo unspecified)
H9c2
  IC50: > 79 µM (inactive)

## COc1ccc(N2C(=O)/C(=C/c3cccs3)NC2=S)cc1
[4]
  IC50: > 80 µM (inactive)

## CS(=O)(=O)N1CCc2cc(C(=O)Nc3ccc(O)cc3)ccc21
Large T antigen
  IC50: > 100 µM (active)
[1]
  AC50: 3.92 µM (active)

## CCCS(=O)(=O)N1CCCC(C(=O)NCCN(CC)c2ccccc2)C1 (stereo unspecified)
[1]
  AC50: 0.33 µM (active)

## Nc1nc(SCc2nc(-c3ccccc3)no2)[nH]c(=O)c1-c1ccccc1
Leucine aminopeptidase
  IC50: 7.2 µM (active)

## CC(=O)Nc1ccc(NS(=O)(=O)c2cc(-c3nnc(O)c4ccccc34)ccc2C)cc1
H9c2
  IC50: > 79 µM (inactive)

## CCOc1cc(C2C3=C(O)CCCC3=NC3=C2C(=O)CCC3)cc(Cl)c1O (stereo unspecified)
Aminopeptidase N
  IC50: 23.9 µM (active)

## CC(=O)Nc1cccc(NC(=O)C2CCCN2C(=O)Nc2cccc(C)c2)c1 (stereo unspecified)
Aminopeptidase N
  IC50: 39.1 µM (active)

## COc1cc(SC)ccc1C(=O)Nc1c(Cl)cncc1Cl
[1]
  AC50: 0.867 µM (active)

## Cc1ccc(C(=O)Nc2ccc(Oc3ccc(C(=O)O)c(C(=O)O)c3)cc2)cc1C
Leucine aminopeptidase
  IC50: 13.2 µM (active)

## Cn1c(=O)c2c(nc(N/N=C/c3ccc(OC(=O)c4ccco4)cc3)n2Cc2ccccc2Cl)n(C)c1=O
[2]
  EC50: 13.4 µM (active)
[3]
  EC50: 14.6 µM (active)

## COc1ccc(-c2cc(=O)c3ccccc3[nH]2)cc1
H9c2
  IC50: > 79 µM (inactive)

## Cc1ccsc1/C=N/NC(=O)c1cccc(S(=O)(=O)Nc2ccccc2Cl)c1
[4]
  IC50: > 80 µM (inactive)

## NS(=O)(=O)c1ccc(CCNc2ccn3nc(-c4ccc(OCCN5CCOCC5)cc4)cc3n2)cc1
H9c2
  IC50: > 79 µM (inactive)

## COc1cccc(C(=O)NC2CCN(CC(=O)NCc3ccccc3OC)CC2)c1
Aminopeptidase N
  IC50: 26.9 µM (active)

## CC1SC(C)C(=O)N(CC(=O)NCc2ccc(F)cc2)C1=O (stereo unspecified)
Leucine aminopeptidase
  IC50: 31.4 µM (active)

## CCOC(=O)Cc1csc(NC(=O)NC2(C(F)(F)F)Oc3cc(Cl)c(Cl)cc3O2)n1
[5]
  EC50: > 195 µM (not active)
Leucine aminopeptidase
  IC50: 27.7 µM (active)

## Cc1ccc([N+](=O)[O-])cc1/N=N/c1c(C)[nH]n(C(N)=S)c1=O
[1]
  AC50: 5.04 µM (active)

## CCOC(=O)c1nc(Nc2ccc(C(C)=O)cc2)c2ccccc2n1
H9c2
  IC50: 8.56 µM (active)

## O=C(Nc1nnc(S(=O)(=O)N2CCOCC2)s1)c1cccc(Br)c1
[4]
  IC50: > 80 µM (inactive)

## CNC(=O)c1cc2c(=O)n3cccc(C)c3nc2n(C(C)C)c1=N
Aminopeptidase N
  IC50: 65.6 µM (active)

## CC(Sc1ccc2c(c1)OCCO2)C(=O)Nc1ncc(Cl)cc1Cl (stereo unspecified)
[6]
  IC50: > 66 µM (inactive)
[7]
  IC50: > 66 µM (inactive)
Leucine aminopeptidase
  IC50: 3.8 µM (active)

## O=C(O)CSc1c(O)nc2ccc(Cl)cc2c1-c1ccccc1
Aminopeptidase N
  IC50: 41 µM (active)

## Nc1nonc1-c1nc2ccccc2n1CC(=O)N/N=C/c1ccc(-c2cccc(C(=O)O)c2)o1
Streptococcus
  EC50: 4.63 µM (active)
Aminopeptidase N
  IC50: 12.5 µM (active)
[8]
  EC50: 4.28 µM (active)

## CCOC(=O)c1c(C)[nH]c(C)c1C(=O)COc1ncnc2cc([N+](=O)[O-])ccc12
H9c2
  IC50: 26.4 µM (active)
[9]
  EC50: > 260 µM (inactive)

## O=C(Cn1c(SCc2ccccc2)nc2ccccc21)N1CCOCC1
Aminopeptidase N
  IC50: 48.7 µM (active)

## CCN(CC)CCC(c1ccc(N(C)C)cc1)c1c(OC)cc(OC)c2ccc(=O)oc12 (stereo unspecified)
[1]
  AC50: 3.28 µM (active)

## NC(=O)c1nsc(C(=O)N(Cc2ccco2)C(C(=O)NCc2ccccc2)c2ccc(O)cc2)c1N (stereo unspecified)
H9c2
  IC50: > 79 µM (inactive)

## COc1ccc(/C=C/C(=O)c2ccc(NC(=O)c3cccs3)cc2)cc1OC
[2]
  EC50: 3.5 µM (active)
[3]
  EC50: 3.01 µM (active)

## COc1ccc2c(c1)O[C@H](c1ccc3c(c1)OCO3)[C@@H](OC(=O)N[C@H](C)C1CCCCC1)C2=O
[2]
  EC50: 11.6 µM (active)
[3]
  EC50: 10.4 µM (active)

## Oc1c(Br)cc(Cl)cc1/C=N/c1ccccc1Br
H9c2
  IC50: > 79 µM (inactive)

## Cc1ccc(NC(=O)Nc2cccs2)cc1
[1]
  AC50: 6.23 µM (active)

## Cn1c(C(=O)O)c(CC(=O)NCC2COc3ccccc3O2)c2ccccc21 (stereo unspecified)
Cytochrome P450 2C19
  AC50: 25.1 µM (inconclusive)
Leucine aminopeptidase
  IC50: 15.7 µM (active)

## Cc1csc(SC(C)C(=O)Nc2ccc(Cl)cn2)n1 (stereo unspecified)
Leucine aminopeptidase
  IC50: 6.63 µM (active)

## C=CCn1c(S)nnc1-c1cccc(OC)c1
[1]
  AC50: 7.27 µM (active)
